Like-named read-outs stand apart in the source and are kept apart here.
Assays:
[1] = system: C4-2 cells; assay: Flow cytometry analysis of cell cycle; format: cell-based, human; details: 25 μM, 48 h; untreated cells 22
Description: (§1) Cells were then rinsed in PBS, pelleted at 400 g for 5 min and maintained on ice for 20 min before resuspension in a […] propidium iodide (Sigma) solution. Cells were kept overnight at 4° C. and the percentages of cells in G1, S and G2-M phases of the cell cycle were measured with a Coulter Epics XL™ flow cytometer (Becton Dickinson) using 488-nm laser excitation. For apoptosis experiment, MEFs were treated with the tested compound at 25 μM for 24 h, then rinced in PBS, pelleted at 400 g for 5 min and stained with annexinV-FITC (Roche Diagnostics, Meylan, France) for 15 min at 4° C. The percentage of annexin positive cells was immediately analysed using 488-nm laser excitation.

[2] = system: LNCaP cells; assay: Flow cytometry analysis of cell cycle; format: cell-based, human; details: 25 μM, 48 h; untreated cells 20
Description: as §1

[3] = system: C4-2 cells; assay: MTT assay (cell viability); details: 48 h
Description: (§2) After 48 h, medium was removed and 250 μl of a 5 mg/ml MTT (Sigma, St Louis, Mo., USA) solution in PBS was added to each well. After 4 h incubation at 37° C., the MTT solution was removed, 200 μl of DMSO (Sigma) was added and cells were incubated for 5 min. Two hundred microliters of each samples was distributed in 96-well plates for an optical density reading at 540 nm.

[4] = system: C4-2 cells; assay: Proliferation by BrDU incorporation; details: 25 μM, 48 h of treatment
Description: (§3) LNCaP and C4-2 cells grown on coverslips were incubated for 4 hours with BrdU (100 μM final) at 24 hours and 48 hours following SCD-1 knock-down. Cells were then fixed and permeabilized with cold methanol for 10 min at −20° C. After 3 washes with PBS, DNA was denaturated with 4NHCL for 10 min at RT, and cells were incubated with blocking buffer (PBS-1% BSA). BrDU was then detected with anti-BrDU monoclonal antibody 1:50 (Dako, Carpinteria, Calif.) for 1 hour at 37° C. After 3 washes with PBS, cells were incubated with an FITC-conjugated anti-mouse secondary antibody 1:150 (Jackson Immunoresearch) for 30 min at 37° C., and slides were mounted in mowiol.

[5] = system: LNCaP cells; assay: Proliferation by BrDU incorporation; format: cell-based, human; details: 25 μM, 48 h of treatment
Description: as §3

[6] = system: C4-2 cells
Description: as §2

Compound | % Inhibition of proliferation at 25 μM (BrDU) on C4-2 [4] [%] | % Inhibition of proliferation at 25 μM (BrDU) on LNCaP [5] [%] | further results
COc1ccc(Br)c(C(=O)N2CCN(S(=O)(=O)c3ccccc3)CC2)c1 [Example 1, 1N-[(2-bromo-5-methoxybenzoyl)]-4N-[(phenyl)sulfonyl]piperazine] | 22.7 ± 11.2 | – | % C4-2 cells in phase S at 25 μM [1]: 20.1%; % LNCaP cells in phase S at 25 μM [2]: 18%; Viable C4-2 cells at 25 μM (% of control) [3]: 45 % of control
COc1ccc(Br)c(C(=O)N2CCN(S(=O)(=O)c3ccc(C(F)(F)F)cc3)CC2)c1 [Example 3, 1N-[(2-bromo-5-methoxybenzoyl)]-4N-[(4-trifluoromethylphenyl)sulfonyl]piperazine] | 65.8 ± 6.4 | – | % C4-2 cells in phase S at 25 μM [1]: 2.8%; % LNCaP cells in phase S at 25 μM [2]: 10%
COc1ccc(Br)c(C(=O)N2CCN(S(=O)(=O)c3ccc(C(C)=O)cc3)CC2)c1 [Example 4, 1N-[(2-bromo-5-methoxybenzoyl)]-4N-[(4-acetylphenyl)sulfonyl]piperazine] | 36 ± 5.4 | – | % C4-2 cells in phase S at 25 μM [1]: 19.7%; % LNCaP cells in phase S at 25 μM [2]: 18%
CCCc1ccc(S(=O)(=O)N2CCN(C(=O)c3cc(OC)ccc3Br)CC2)cc1 [Example 5, 1N-[(2-bromo-5-methoxybenzoyl)]-4N-[(4-propylphenyl)sulfonyl]piperazine] | 26.8 ± 20.2 | – | % C4-2 cells in phase S at 25 μM [1]: 10.7%; % LNCaP cells in phase S at 25 μM [2]: 3%
COc1ccc(Br)c(C(=O)N2CCN(S(=O)(=O)c3ccc([N+](=O)[O-])cc3)CC2)c1 [Example 6, 1N-[(2-bromo-5-methoxybenzoyl)]-4N-[(4-nitrophenyl)sulfonyl]piperazine] | 0 | – | % C4-2 cells in phase S at 25 μM [1]: 19.8%; % LNCaP cells in phase S at 25 μM [2]: 15%; Viable C4-2 cells at 25 μM (% of control) [3]: 42 % of control
COc1ccc(Br)c(C(=O)N2CCN(S(=O)(=O)c3cccc(C(F)(F)F)c3)CC2)c1 [Example 7, 1N-[(2-bromo-5-methoxybenzoyl)]-4N-[(3-trifluoromethylphenyl)sulfonyl]piperazine] | 31.6 ± 7.61 | 16.7 | Viable C4-2 cells at 25 μM (% of control) [6]: 44 % of control
COc1ccc(Br)c(C(=O)N2CCN(S(=O)(=O)c3ccccc3C(F)(F)F)CC2)c1 [Example 8, 1N-[(2-bromo-5-methoxybenzoyl)]-4N-[(2-trifluoromethylphenyl)sulfonyl]piperazine] | 84.4 ± 8.5 | 40.1 | Viable C4-2 cells at 25 μM (% of control) [6]: 73 % of control
COc1ccc(Br)c(C(=O)N2CCN(S(=O)(=O)c3ccc(-c4ccccc4)cc3)CC2)c1 [Example 9, 1N-[(2-bromo-5-methoxybenzoyl)]-4N-[(4-biphenyl)sulfonyl]piperazine] | 60.5 ± 5.7 | 48.3 | Viable C4-2 cells at 25 μM (% of control) [3]: 90 % of control
COc1ccc(Br)c(C(=O)N2CCN(S(=O)(=O)c3ccc(C)cc3)CC2)c1 [Example 10, 1N-[(2-bromo-5-methoxybenzoyl)]-4N-[(4-methylphenyl)sulfonyl]piperazine] | 0 | 0 | Viable C4-2 cells at 25 μM (% of control) [3]: 59 % of control
COc1ccc(Br)c(C(=O)N2CCN(S(=O)(=O)c3ccc(OC(F)(F)F)cc3)CC2)c1 [Example 11] | 63 ± 4.1 | 45.5 | Viable C4-2 cells at 25 μM (% of control) [6]: 74 % of control
COc1ccc(Br)c(C(=O)N2CCN(S(=O)(=O)c3ccc(F)cc3F)CC2)c1 [Example 12, 1N-[(2-bromo-5-methoxybenzoyl)]-4N-[(2, 4 difluorophenyl)sulfonyl]piperazine] | 55.2 ± 0.5 | 60.6 | Viable C4-2 cells at 25 μM (% of control) [6]: 70 % of control
COc1ccc(Br)c(C(=O)N2CCN(S(=O)(=O)c3ccccc3F)CC2)c1 [Example 13, 1N-[(2-bromo-5-methoxybenzoyl)]-4N-[(2-fluorophenyl)sulfonyl]piperazine] | 55.6 ± 3.1 | 27.1 | Viable C4-2 cells at 25 μM (% of control) [6]: 56 % of control
COc1ccc(Br)c(C(=O)N2CCN(S(=O)(=O)c3c(F)cccc3F)CC2)c1 [Example 14, 1N-[(2-bromo-5-methoxybenzoyl)]-4N-[(2,6-difluorophenyl)sulfonyl]piperazine] | 0 | – | –
COc1ccc(Br)c(C(=O)N2CCN(S(=O)(=O)c3ccc(C(C)C)cc3)CC2)c1 [Example 16, 1N-[(2-bromo-5-methoxybenzoyl)]-4N-[(4-isopropylphenyl)sulfonyl]piperazine] | 75.4 ± 10.8 | – | –
COc1ccc(Br)c(C(=O)N2CCN(S(=O)(=O)c3ccc(Br)cc3)CC2)c1 [Example 17, 1N-[(2-bromo-5-methoxybenzoyl)]-4N-[(4-bromophenyl)sulfonyl]piperazine] | 67.6 ± 8.2 | – | –
COc1ccc(Br)c(C(=O)N2CCN(S(=O)(=O)c3ccc(Cl)cc3)CC2)c1 [Example 18, 1N-[(2-bromo-5-methoxybenzoyl)]-4N-[(4-chlorophenyl)sulfonyl]piperazine] | 38.1 ± 7.1 | 49.7 | Viable C4-2 cells at 25 μM (% of control) [3]: 59 % of control
COc1ccc(S(=O)(=O)N2CCN(C(=O)c3cc(OC)ccc3Br)CC2)cc1 [Example 19, 1N-[(2-bromo-5-methoxybenzoyl)]-4N-[(4-methoxyphenyl)sulfonyl]piperazine] | 22.4 ± 7.7 | – | –
COc1ccc(Br)c(C(=O)N2CCN(S(=O)(=O)Cc3ccccc3)CC2)c1 [Example 20, 1N-[(2-bromo-5-methoxybenzoyl)]-4N-[(phenylmethane)sulfonyl]piperazine] | 46.3 ± 11.7 | 16.8 | Viable C4-2 cells at 25 μM (% of control) [3]: 37 % of control
COc1ccc(Br)c(C(=O)N2CCN(S(=O)(=O)c3cccs3)CC2)c1 [Example 21, 1N-[(2-bromo-5-methoxybenzoyl)]-4N-[(2-thiophene)sulfonyl]piperazine] | 58.3 ± 19.9 | – | –
COc1ccc(Br)c(C(=O)N2CCN(S(=O)(=O)c3ccsc3)CC2)c1 [Example 22, 1N-[(2-bromo-5-methoxybenzoyl)]-4N-[(3-thiophene)sulfonyl]piperazine] | 28 ± 2.6 | – | –
COc1ccc(Br)c(C(=O)N2CCN(S(=O)(=O)c3ccco3)CC2)c1 [Example 23, 1N-[(2-bromo-5-methoxybenzoyl)]-4N-[(2-furan)sulfonyl]piperazine] | 48 ± 14 | – | –
COc1ccc(Br)c(C(=O)N2CCN(S(=O)(=O)c3ccoc3)CC2)c1 [Example 24, 1N-[(2-bromo-5-methoxybenzoyl)]-4N-[(3-furan)sulfonyl]piperazine] | 28.4 ± 9.8 | – | –
COc1ccc(Br)c(C(=O)N2CCN(S(=O)(=O)c3cn(C)cn3)CC2)c1 [Example 25, 1N-[(2-bromo-5-methoxybenzoyl)]-4N-[(1-methyl-1H-imidazole)sulfonyl]piperazine] | 0 | – | –
COc1ccc(C(=O)N2CCN(S(=O)(=O)c3ccc(F)cc3F)CC2)cc1Br [Example 26, 1N-[(3-bromo-4-methoxybenzoyl)]-4-N-[(2,4-difluorophenyl)sulfonyl]piperazine] | 68.2 ± 18.2 | – | –
COc1ccc(Br)cc1C(=O)N1CCN(S(=O)(=O)c2ccc(F)cc2F)CC1 [Example 27, 1N-[(2-methoxy-5-bromobenzoyl)]-4-N-[(2,4-difluorophenyl)sulfonyl]piperazine] | 26.2 ± 6.2 | – | –
COc1c(Br)cccc1C(=O)N1CCN(S(=O)(=O)c2ccc(F)cc2F)CC1 [Example 28, 1N-[(2-methoxy-3-bromobenzoyl)]-4-N-[(2,4-difluorophenyl)sulfonyl]piperazine] | 55.4 ± 14 | – | –
COc1cccc(C(=O)N2CCN(S(=O)(=O)c3ccc(F)cc3F)CC2)c1 [Example 31, 1N-[(3-methoxybenzoyl)]-4-N-[(2,4-difluorophenyl)sulfonyl]piperazine] | 25.3 ± 6.1 | – | –
COc1ccccc1C(=O)N1CCN(S(=O)(=O)c2ccc(F)cc2F)CC1 [Example 32, 1N-[(2-methoxybenzoyl)]-4-N-[(2,4-difluorophenyl)sulfonyl]piperazine] | 0 | – | –
O=C(c1ccsc1)N1CCN(S(=O)(=O)c2ccc(F)cc2F)CC1 [Example 36, 1N-[3-thiophenecarbonyl]-4-N-[(2,4-difluorophenyl)sulfonyl]piperazine] | 40 ± 7.6 | – | –
O=C(c1cscn1)N1CCN(S(=O)(=O)c2ccc(F)cc2F)CC1 [Example 37, 1N-[4-thiazolecarbonyl]-4-N-[(2,4-difluorophenyl)sulfonyl]piperazine] | 37 ± 7.8 | – | –

Source: US20130012709A1, “NOVEL INHIBITORS OF STEAROYL-CoA-DESATURASE-1 AND THEIR USES” (CENTRE NATIONAL DE LA RECHERCHE SCIENTIFIQUE, priority 2009, published 2013)
